Measurements published in the supplement of paper PMC13380429.

Experiments:
[1] = tested on: A549-ACE2 infected with SARS-CoV-2; assay: cell count relative to DMSO; higher = less toxic; settings: 24 h
[2] = tested on: Caco-2; assay: cell viability relative to DMSO; higher = less toxic; settings: 72 h
[3] = tested on: Calu-3; assay: as above; settings: 72 h
[4] = tested on: HepG2; assay: as above; settings: 72 h
[5] = tested on: U2OS; assay: as above; settings: 72 h
[6] = tested on: Vero E6; assay: as above; settings: 72 h
[7] = tested on: A549-ACE2 infected with SARS-CoV-2; assay: SARS-CoV-2 infection rate relative to DMSO; higher = more infection; settings: 24 h
[8] = tested on: A549-ACE2; assay: phospholipidosis EC50; higher = less potent phospholipidosis inducer
[9] = tested on: A549-ACE2; assay: drug-induced phospholipidosis relative to tamoxifen; higher = more phospholipidosis
[10] = tested on: A549-ACE2 infected with SARS-CoV-2; assay: morphology score (similarity to uninfected cells); higher = more like uninfected cells; settings: 24 h
[11] = tested on: Caco-2; assay: relative viability EC50 (midpoint between 100% and the lowest measured viability); higher = less toxic; settings: 72 h
[12] = tested on: Calu-3; assay: as above; settings: 72 h
[13] = tested on: HepG2; assay: as above; settings: 72 h
[14] = tested on: U2OS; assay: as above; settings: 72 h
[15] = tested on: Caco-2; assay: drug sensitivity score (DSS) for viability; higher = more toxic; extreme values may be limits of the assay; settings: 72 h
[16] = tested on: Calu-3; assay: as above; settings: 72 h
[17] = tested on: HepG2; assay: as above; settings: 72 h
[18] = tested on: U2OS; assay: as above; settings: 72 h
[19] = tested on: Vero E6; assay: as above; settings: 72 h
[20] = tested on: Vero E6; assay: relative viability EC50 (midpoint between 100% and the lowest measured viability); higher = less toxic; settings: 72 h

CCn1c2ccccc2c2cc(Nc3ccnc(NCCCN4CCOCC4)n3)ccc21 [EHop-016]
Settings	SARS-CoV-2 infection rate [%]	cell count [%]	cell viability [%]	morphology score	phospholipidosis EC50 [nM]
[1], 0.1 µM	–	93	–	–	–
[1], 0.3 µM	–	100	–	–	–
[1], 1 µM	–	103	–	–	–
[1], 3 µM	–	118	–	–	–
[2], 1 nM	–	–	91.4	–	–
[2], 10 nM	–	–	93.5	–	–
[2], 100 nM	–	–	97.4	–	–
[2], 1000 nM	–	–	85.5	–	–
[2], 10000 nM	–	–	31.2	–	–
[3], 1 nM	–	–	95	–	–
[3], 10 nM	–	–	98	–	–
[3], 100 nM	–	–	100	–	–
[3], 1000 nM	–	–	99	–	–
[3], 10000 nM	–	–	6.7	–	–
[4], 1 nM	–	–	103	–	–
[4], 10 nM	–	–	104	–	–
[4], 100 nM	–	–	98.5	–	–
[4], 1000 nM	–	–	98	–	–
[4], 10000 nM	–	–	28.1	–	–
[5], 1 nM	–	–	100	–	–
[5], 10 nM	–	–	94.1	–	–
[5], 100 nM	–	–	101	–	–
[5], 1000 nM	–	–	91	–	–
[5], 10000 nM	–	–	34.6	–	–
[6], 1 nM	–	–	102	–	–
[6], 10 nM	–	–	97.2	–	–
[6], 100 nM	–	–	88.9	–	–
[6], 1000 nM	–	–	94.3	–	–
[6], 10000 nM	–	–	64.3	–	–
[7], 0.1 µM	98	–	–	–	–
[7], 0.3 µM	97	–	–	–	–
[7], 1 µM	70	–	–	–	–
[7], 3 µM	23	–	–	–	–
[8], 24 h	–	–	–	–	895
[8], 48 h	–	–	–	–	1390
[8], 72 h	–	–	–	–	3130
[10], 0.1 µM	–	–	–	-0.12	–
[10], 0.3 µM	–	–	–	-0.03	–
[10], 1 µM	–	–	–	0.46	–
[10], 3 µM	–	–	–	0.79	–

drug-induced phospholipidosis [%], [9]
Settings	0.3 µM	0.833333 µM	3.33333 µM	6.66667 µM	10 µM	30 µM
24 h	3.51	16.7	47	47.4	52.6	11.5
48 h	4.02	8.22	56.9	63.9	72.1	40.9
72 h	3.76	2.65	48.2	69.6	81.3	–

Settings	drug sensitivity score	relative viability EC50 [nM]
[11]	–	1690
[12]	–	3090
[13]	–	2960
[14]	–	2060
[15]	6.1	–
[16]	5.3	–
[17]	4.2	–
[18]	5.1	–
[19]	2.6	–

O=C(c1ccc(-c2ccc(Cl)cc2)o1)N(Cc1ccccn1)c1ccc(N2CCNCC2)cc1 [MK2-IN-1]
Settings	SARS-CoV-2 infection rate [%]	cell count [%]	cell viability [%]	morphology score	phospholipidosis EC50 [nM]
[1], 0.1 µM	–	100	–	–	–
[1], 0.3 µM	–	102	–	–	–
[1], 1 µM	–	107	–	–	–
[1], 3 µM	–	117	–	–	–
[2], 1 nM	–	–	104	–	–
[2], 10 nM	–	–	111	–	–
[2], 100 nM	–	–	100	–	–
[2], 1000 nM	–	–	131	–	–
[2], 10000 nM	–	–	52.9	–	–
[3], 1 nM	–	–	92.2	–	–
[3], 10 nM	–	–	112	–	–
[3], 100 nM	–	–	93.9	–	–
[3], 1000 nM	–	–	116	–	–
[3], 10000 nM	–	–	54.9	–	–
[4], 1 nM	–	–	102	–	–
[4], 10 nM	–	–	109	–	–
[4], 100 nM	–	–	115	–	–
[4], 1000 nM	–	–	97.9	–	–
[4], 10000 nM	–	–	68.2	–	–
[5], 1 nM	–	–	97.9	–	–
[5], 10 nM	–	–	103	–	–
[5], 100 nM	–	–	95.9	–	–
[5], 1000 nM	–	–	104	–	–
[5], 10000 nM	–	–	83.2	–	–
[6], 1 nM	–	–	96.5	–	–
[6], 10 nM	–	–	94	–	–
[6], 100 nM	–	–	98.1	–	–
[6], 1000 nM	–	–	95.7	–	–
[6], 10000 nM	–	–	67.6	–	–
[7], 0.1 µM	97	–	–	–	–
[7], 0.3 µM	88	–	–	–	–
[7], 1 µM	77	–	–	–	–
[7], 3 µM	29	–	–	–	–
[8], 24 h	–	–	–	–	3590
[8], 48 h	–	–	–	–	4690
[8], 72 h	–	–	–	–	4850
[10], 0.1 µM	–	–	–	0.14	–
[10], 0.3 µM	–	–	–	0.26	–
[10], 1 µM	–	–	–	0.34	–
[10], 3 µM	–	–	–	0.75	–

drug-induced phospholipidosis [%], [9]
Settings	0.3 µM	0.833333 µM	3.33333 µM	6.66667 µM	10 µM	30 µM
24 h	3.45	9.1	31.8	109	102	96.8
48 h	6.99	4.08	23	127	127	153
72 h	5.37	-1.19	20.6	118	139	–

Settings	drug sensitivity score	relative viability EC50 [nM]
[14]	–	> 10000
[15]	1.5	–
[16]	1.7	–
[17]	1.7	–
[18]	0.2	–
[19]	2.2	–

CC1(C)CC[C@]2(NC(=O)C(C)(F)F)CC[C@]3(C)[C@H](C(=O)C=C4[C@@]5(C)C=C(C#N)C(=O)C(C)(C)[C@@H]5CC[C@]43C)[C@@H]2C1 [Omaveloxolone (RTA-408)]
Settings	SARS-CoV-2 infection rate, [7] [%]	cell count, [1] [%]	cell viability, [2] [%]	cell viability, [3] [%]	cell viability, [4] [%]	cell viability, [5] [%]	cell viability, [6] [%]	morphology score, [10]
1 nM	–	–	100	99.6	97.6	96.8	107	–
10 nM	–	–	102	118	91.6	102	108	–
100 nM	–	–	85.7	90.7	83.6	98.7	103	–
0.3 µM	111	97	–	–	–	–	–	-0.26
1000 nM	–	–	32.3	23.6	1.2	1.9	7.7	–
3 µM	0	1	–	–	–	–	–	0.09
10000 nM	–	–	5.4	1.6	-0.3	-0.1	-0.1	–

[9], 0.3 µM
Settings	drug-induced phospholipidosis [%]
24 h	9.83
48 h	10.5
72 h	21.8

Settings	drug sensitivity score	relative viability EC50 [nM]
[11]	–	450
[12]	–	452
[13]	–	192
[14]	–	321
[15]	14.5	–
[16]	15.4	–
[17]	20.7	–
[18]	17.9	–
[19]	16.6	–
[20]	–	410

COc1cc2ncnc(Sc3nnc(C)s3)c2cc1OC [SKLB1002]
Settings	SARS-CoV-2 infection rate, [7] [%]	cell count, [1] [%]	cell viability, [2] [%]	cell viability, [3] [%]	cell viability, [4] [%]	cell viability, [5] [%]	cell viability, [6] [%]	morphology score, [10]
1 nM	–	–	101	103	104	99.1	96.2	–
10 nM	–	–	92	99.2	99.6	99.4	94.8	–
100 nM	–	–	97.7	96.3	105	102	92.7	–
0.3 µM	105	102	–	–	–	–	–	-0.11
1000 nM	–	–	94.4	92.1	105	102	98.4	–
3 µM	105	102	–	–	–	–	–	-0.15
10 µM	106	97	–	–	–	–	–	0.01
10000 nM	–	–	73.7	107	59.1	88.3	87.8	–
30 µM	79	85	–	–	–	–	–	0.25

drug-induced phospholipidosis [%], [9]
Settings	0.3 µM	0.833333 µM	3.33333 µM	6.66667 µM	10 µM	30 µM
24 h	7.29	1.02	4.5	10.7	22.8	44.1
48 h	7.01	-1.13	-0.08	3.84	12.5	–
72 h	8.05	-2.71	-0.571	-0.945	0.143	–

Settings	drug sensitivity score	relative viability EC50 [nM]
[12]	–	> 10000
[14]	–	> 10000
[15]	1.9	–
[16]	0	–
[17]	1.7	–
[18]	0	–
[19]	0	–
[20]	–	> 10000
